Source: PubChem BioAssay AID493139 (Sanford-Burnham Center for Chemical Genomics, 2011)
Where “and” joins values, the source holds several entries; their conditions need not be identical. Equal values may be shown once. Calls of active or inactive are those of the source. No rule for the calls is given here.

Target: Alkaline phosphatase, germ cell type (Homo sapiens) (UniProt P10696)
Assay: placental-like alkaline phosphatase activators or inhibitors – biochemical, human placental-like ALPPL2 isozyme, selectivity assay for mouse IAP activator project, SAR follow-up (AID 493139)
Conditions: purified human placental-like alkaline phosphatase, enzymatic activity

Sequence of Alkaline phosphatase, germ cell type (Homo sapiens) (P10696 whole entry, looked up): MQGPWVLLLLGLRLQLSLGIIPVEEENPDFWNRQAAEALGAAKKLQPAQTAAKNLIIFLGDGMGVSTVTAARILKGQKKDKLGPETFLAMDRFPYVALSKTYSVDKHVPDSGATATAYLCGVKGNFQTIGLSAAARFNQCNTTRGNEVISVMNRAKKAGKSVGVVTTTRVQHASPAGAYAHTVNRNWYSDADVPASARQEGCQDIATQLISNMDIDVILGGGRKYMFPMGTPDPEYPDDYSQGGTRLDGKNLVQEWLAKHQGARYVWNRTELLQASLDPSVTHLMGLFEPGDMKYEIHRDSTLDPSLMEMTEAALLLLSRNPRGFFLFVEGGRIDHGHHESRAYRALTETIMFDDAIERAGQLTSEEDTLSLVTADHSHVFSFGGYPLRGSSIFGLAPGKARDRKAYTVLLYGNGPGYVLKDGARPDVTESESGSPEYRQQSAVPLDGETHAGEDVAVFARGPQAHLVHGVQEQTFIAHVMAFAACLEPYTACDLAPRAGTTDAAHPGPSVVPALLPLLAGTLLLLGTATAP

IC50 (inhibition of PLAP activity)	SMILES
> 100 µM (inactive)	O=C(CCNS(=O)(=O)c1ccc2[nH]c(=O)oc2c1)Nc1ccccc1
> 100 µM (inactive)	O=C(CCN1C(=O)/C(=C\c2ccco2)SC1=S)Nc1ccc(C(=O)O)c(O)c1
> 100 µM (inactive)	CCc1ccc(NC(=O)CN(C)S(=O)(=O)c2ccc3[nH]c(=O)oc3c2)cc1
> 100 µM (inactive)	COc1ccccc1CNC(=O)CCNS(=O)(=O)c1ccc2[nH]c(=O)oc2c1
> 100 µM (inactive)	Cc1ccc(C)c(NC(=O)CCNS(=O)(=O)c2ccc3[nH]c(=O)oc3c2)c1
> 100 µM (inactive)	CCOC(=O)N1CCN(S(=O)(=O)c2ccc3[nH]c(=O)oc3c2)CC1
> 100 µM (inactive)	O=C(CN1C(=O)/C(=C/c2ccco2)SC1=S)Nc1cccc(C(=O)O)c1
27 µM	O=C(CN1C(=O)/C(=C/c2ccco2)SC1=S)Nc1ccc(O)c(C(=O)O)c1
> 100 µM (inactive)	Cc1ccc(NC(=O)CCNS(=O)(=O)c2ccc3[nH]c(=O)oc3c2)c(C)c1
> 100 µM (inactive)	CC(C(=O)NCCc1ccc(O)cc1)N1C(=O)/C(=C/c2ccco2)SC1=S (stereo not drawn)
> 100 µM (inactive)	COC(=O)c1ccc(C)c(NC(=O)CSc2sc3c(O)cc(=O)[nH]c3c2C#N)c1
> 100 µM (inactive)	COc1ccc(OC)c(NC(=O)CCNS(=O)(=O)c2ccc3[nH]c(=O)oc3c2)c1
22 µM	COc1cc(C(=O)NNC(=S)NC(=O)c2ccc(Cl)cc2)cc(OC)c1OC
> 100 µM (inactive)	O=C(CCCN1C(=O)/C(=C\c2ccco2)SC1=S)Nc1ccc(O)cc1C(=O)O
> 100 µM (inactive)	COc1cccc(NC(=O)CN(C)S(=O)(=O)c2ccc3[nH]c(=O)oc3c2)c1
> 100 µM (inactive)	N#Cc1c(SCC(=O)Nc2ccccc2C(F)(F)F)sc2c(O)cc(=O)[nH]c12
> 100 µM (inactive)	O=C(CN1C(=O)/C(=C/c2ccco2)SC1=S)NCCc1ccc(O)cc1
> 100 µM (inactive)	O=C(CN1C(=O)/C(=C\c2ccco2)SC1=S)Nc1cccc(C(=O)O)c1
> 100 µM (inactive)	CCOc1ccc2nc(NC(=O)CN(C)S(=O)(=O)c3ccc4[nH]c(=O)oc4c3)sc2c1
78.4 µM	O=C(CN1C(=O)/C(=C/c2ccco2)SC1=S)Nc1ccc(C(=O)O)c(O)c1
> 100 µM (inactive)	COc1ccc(NC(=O)CCNS(=O)(=O)c2ccc3[nH]c(=O)oc3c2)cc1Cl
31.3 µM	COc1cc(C(=O)NN=Cc2ccccn2)cc(OC)c1OC
> 100 µM (inactive)	N#Cc1c(SCC(=O)Nc2cccc(F)c2)sc2c(O)cc(=O)[nH]c12

IC50 (inhibition of PLAP activity)	SMILES
> 100 µM (inactive)	O=C(CN1C(=O)/C(=C\c2ccco2)SC1=S)Nc1ccccc1C(=O)O
> 100 µM (inactive)	COc1ccc(OC)c(NC(=O)CSc2sc3c(O)cc(=O)[nH]c3c2C#N)c1
> 100 µM (inactive)	COc1cccc(CNC(=O)CCNS(=O)(=O)c2ccc3[nH]c(=O)oc3c2)c1
> 100 µM (inactive)	CC(C)c1ccc(NC(=O)CCNS(=O)(=O)c2ccc3[nH]c(=O)oc3c2)cc1
> 100 µM (inactive)	O=S(=O)(Nc1ncccn1)c1ccc(NC(=S)NCCC(c2ccccc2)c2ccccc2)cc1
> 100 µM (inactive)	COc1ccc(N2CCN(C(=O)CN3C(=O)/C(=C\c4ccco4)SC3=S)CC2)cc1
> 100 µM (inactive)	O=C(CN1C(=O)/C(=C\c2ccco2)SC1=S)Nc1ccc(C(=O)O)cc1
> 100 µM (inactive)	N#Cc1c(SCC(=O)Nc2nc3ccccc3s2)sc2c(O)cc(=O)[nH]c12
> 100 µM (inactive)	COc1ccc(CNC(=O)CSc2sc3c(O)cc(=O)[nH]c3c2C#N)cc1OC
> 100 µM (inactive)	COc1ccccc1NC(=O)CSc1sc2c(O)cc(=O)[nH]c2c1C#N
> 100 µM (inactive)	Cc1cc(=O)oc2cc(NC(=S)NCCC(c3ccccc3)c3ccccc3)ccc12
> 100 µM (inactive)	CC(C(=O)NCCc1ccc(O)c(O)c1)N1C(=O)/C(=C\c2ccco2)SC1=S (stereo not drawn)
> 100 µM (inactive)	O=C(NCCc1ccc(Cl)cc1)C1CCCN(S(=O)(=O)c2ccc3[nH]c(=O)oc3c2)C1 (stereo not drawn)
35.7 µM	COc1cc(C(=O)NNC(=S)NC(=O)c2ccccc2C)cc(OC)c1OC
> 100 µM (inactive)	CSc1cccc(NC(=O)CCNS(=O)(=O)c2ccc3[nH]c(=O)oc3c2)c1
21.9 µM	COc1cc(C(=O)NNC(=O)c2n[nH]c3ccccc23)cc(OC)c1OC
> 100 µM (inactive)	COc1ccc(CNC(=O)CSc2sc3c(O)cc(=O)[nH]c3c2C#N)cc1
21.9 µM	CC(C(=O)Nc1ccc(C(=O)O)cc1)N1C(=O)/C(=C\c2ccco2)SC1=S (stereo not drawn)
> 100 µM (inactive)	O=C(CN1C(=O)/C(=C\c2ccco2)SC1=S)Nc1ccc(O)cc1C(=O)O
> 100 µM (inactive)	O=C(CCCN1C(=O)/C(=C/c2ccco2)SC1=S)Nc1ccccc1
> 100 µM (inactive)	COc1ccccc1NC(=O)CCNS(=O)(=O)c1ccc2[nH]c(=O)oc2c1
> 100 µM (inactive)	O=C(CCNS(=O)(=O)c1ccc2[nH]c(=O)oc2c1)Nc1cccc(-c2ccno2)c1
> 100 µM (inactive)	CCOc1cccc(NC(=O)CSc2sc3c(O)cc(=O)[nH]c3c2C#N)c1

Continued, compound first:

SMILES	IC50 (inhibition of PLAP activity)
COc1cc(Cl)c(C)cc1NC(=O)CSc1sc2c(O)cc(=O)[nH]c2c1C#N	> 100 µM (inactive)
NS(=O)(=O)c1ccc(-c2ccc(/C=C3\SC(=S)N(C4CCS(=O)(=O)C4)C3=O)o2)cc1 (stereo not drawn)	> 100 µM (inactive)
CCN(CC)C(=O)CSc1sc2c(O)cc(=O)[nH]c2c1C#N	> 100 µM (inactive)
CC(C)C(C(=O)NC1CCS(=O)(=O)C1)N1C(=O)/C(=C\c2ccco2)SC1=S (stereo not drawn)	> 100 µM (inactive)
O=C(CN1C(=O)/C(=C/c2ccco2)SC1=S)N[C@@H]1CSC[C@@H]1O	> 100 µM (inactive)
CC(C)N1CCC(=NNC(=O)c2cc(O)c(O)c(O)c2)CC1	> 100 µM (inactive) and 61.4 µM
N#Cc1c(SCC(=O)Nc2ccc(Cl)cc2Cl)sc2c(O)cc(=O)[nH]c12	> 100 µM (inactive)
COc1cc(C(=O)NNc2nc3cc4c(cc3s2)OCO4)cc(OC)c1OC	15.3 µM
O=C(NN=Cc1cccnc1)c1cc(O)c(O)c(O)c1	> 100 µM (inactive)
O=C(N/N=C/c1ccccc1F)c1cc(O)c(O)c(O)c1	> 100 µM (inactive)
N#Cc1c(SCC(=O)Nc2nc3ccc(Br)cc3s2)sc2c(O)cc(=O)[nH]c12	> 100 µM (inactive)
Cc1cc(NC(=O)CSc2sc3c(O)cc(=O)[nH]c3c2C#N)ccc1Br	> 100 µM (inactive)
O=C(N/N=C/c1ccco1)c1cc(O)c(O)c(O)c1	> 100 µM (inactive)
CCCSc1nnc(NC(=O)CSc2sc3c(O)cc(=O)[nH]c3c2C#N)s1	> 100 µM (inactive)
N#Cc1c(SCC(=O)Nc2ccc(C(F)(F)F)cc2)sc2c(O)cc(=O)[nH]c12	> 100 µM (inactive)
CCc1nnc(NC(=O)CSc2sc3c(O)cc(=O)[nH]c3c2C#N)s1	> 100 µM (inactive)
CN(C(=O)CN1C(=O)/C(=C\c2ccco2)SC1=S)C1CCS(=O)(=O)C1 (stereo not drawn)	> 100 µM (inactive)
N#Cc1cccc(NC(=O)CSc2sc3c(O)cc(=O)[nH]c3c2C#N)c1	> 100 µM (inactive)
COc1cc(C(=O)NNC(=O)C2CC2)cc(OC)c1OC	> 100 µM (inactive)

SMILES	IC50 (inhibition of PLAP activity)
COC(=O)NNC(=O)c1cc(OC)c(OC)c(OC)c1	> 100 µM (inactive)
CCN(C(=O)C(C)N1C(=O)/C(=C/c2ccco2)SC1=S)C1CCS(=O)(=O)C1 (stereo not drawn)	> 100 µM (inactive)
CC(C)NC(=O)CSc1sc2c(O)cc(=O)[nH]c2c1C#N	> 100 µM (inactive)
O=C(CN1C(=O)/C(=C/c2ccco2)SC1=S)NC1CCS(=O)(=O)C1 (stereo not drawn)	> 100 µM (inactive)
Cc1csc(NC(=O)CSc2sc3c(O)cc(=O)[nH]c3c2C#N)n1	> 100 µM (inactive)
O=C(N/N=C/C1CC2CCC1C2)c1cc(O)c(O)c(O)c1 (stereo not drawn)	> 100 µM (inactive)
CCN(C(=O)CN1C(=O)/C(=C\c2ccco2)SC1=S)C1CCS(=O)(=O)C1 (stereo not drawn)	> 100 µM (inactive)
COc1cccc(/C=N/NC(=O)c2cc(O)c(O)c(O)c2)c1	> 100 µM (inactive)
Cc1ccc(/C=C2\SC(=S)N(C3CCS(=O)(=O)C3)C2=O)o1 (stereo not drawn)	> 100 µM (inactive)
O=C(CN1C(=O)/C(=C/c2ccco2)SC1=S)NC1C=CS(=O)(=O)C1 (stereo not drawn)	28.5 µM
CC(C(=O)Nc1ccc(C(=O)O)c(O)c1)N1C(=O)/C(=C\c2ccco2)SC1=S (stereo not drawn)	32.6 µM
O=C(N/N=C/c1ccsc1)c1cc(O)c(O)c(O)c1	> 100 µM (inactive)
Cc1ccc(NC(=O)CSc2sc3c(O)cc(=O)[nH]c3c2C#N)c(F)c1	> 100 µM (inactive)
C/C(=N\NC(=O)c1cc(O)c(O)c(O)c1)c1ccncc1	> 100 µM (inactive)
O=C1/C(=C/c2ccco2)SC(=S)N1C1CCS(=O)(=O)C1 (stereo not drawn)	17.9 µM
N#Cc1c(SCC(=O)Nc2nncs2)sc2c(O)cc(=O)[nH]c12	> 100 µM (inactive)
CC(C(=O)N(C)C1CCS(=O)(=O)C1)N1C(=O)/C(=C/c2ccco2)SC1=S (stereo not drawn)	> 100 µM (inactive)
Cc1ccc(Cl)cc1NC(=O)CSc1sc2c(O)cc(=O)[nH]c2c1C#N	> 100 µM (inactive)
